Reference: patent EP1980248B1, “Composition for treating cancer cells and synthetic method for the same” (Kaohsiung Medical University, priority 2007, dated 2008)
Values after ≈ are worked out from the molar mass of the structure shown.

What was measured:
Assay in all cases: Cytotoxicity assay, MTT colorimetric method
Assay type in all cases: cell-based
HepG2 = HepG2 human liver cancer cell line; 72 hrs treatment; cell viability by MTT
Method: (§1) Human liver (HepG2 and Hep3B), breast (MCF-7 and MDA-MB-231), and lung (A549) cancer cell lines were propagated in RPMI-1640 medium supplement with 10% (v/v) FBS, 100 U/mL penicillin and 100 µg/mL streptomycin at 37°C in a humidified atmosphere of 5% CO2 and 95% air. The culturing medium is changed every three days. Upon confluency, cells were subcultured to confluency, and used for experiments. The experimental period is determined according to the aim of experiment.
(§2) Cytotoxicity is measured by the MTT colorimetric method. Cells were seeded at densities of 5,000 - 10,000 cells/well in 96-well tissue culture plates. On day two, cells are treated with test compounds for another 72 hrs. After drug treatment, attached cells were incubated with MTT (0.5 mg/mL) for 1 hr and subsequently solubilized in DMSO. The absorbency at 550 nm is then measured using a microplate reader. The IC50 is the concentration of agent that reduces the cell viability by 50% under the experimental conditions, and the cytotoxic compound, Doxorubicin, is used as a positive control.

MDA-MB-231 = MDA-MB-231 human breast cancer cell line; 72 hrs treatment; cell viability by MTT
Method: as §1, §2

A549 = A549 human lung cancer cell line; 72 hrs treatment; cell viability by MTT
Method: as §1, §2

Hep3B = Hep3B human liver cancer cell line; 72 hrs treatment; cell viability by MTT
Method: as §1, §2

MCF-7 = MCF-7 human breast cancer cell line, 72 hrs treatment, cell viability by MTT; for IC50: MCF7
Method: as §1, §2

SMILES | IC50 HepG2 (HepG2) [µg/mL] | IC50 MDA-MB-231 (MDA-MB-231) [µg/mL] | IC50 A549 (A549) [µg/mL] | IC50 Hep3B (Hep3B) [µg/mL] | IC50 MCF-7 (MCF-7) [µg/mL] | IC50 (HepG2) [µg/mL] | IC50 (MDA-MB-231) [µg/mL] | IC50 (A549) [µg/mL] | IC50 (Hep3B) [µg/mL] | IC50 (MCF-7) [µg/mL]
COC1(c2cc(=O)c3c(C)cccc3o2)C=CC(=O)C=C1 [10b, 1'-methoxy-5-methylprotoflavonone] | 7.64 (≈ 27.1 µM) | 0.54 (≈ 1.91 µM) | 16.36 (≈ 58 µM) | 0.66 (≈ 2.34 µM) | 1.55 (≈ 5.49 µM) | – | – | – | – | –
COc1cccc2c1C(=O)c1c(O)c3c(c(O)c1C2=O)C[C@@](O)(C(=O)CO)C[C@@H]3O[C@H]1C[C@H](N)[C@H](O)[C@H](C)O1 [Doxorubicin, reference compound] | – | – | – | – | – | 0.29 (≈ 0.534 µM) | 0.08 (≈ 0.147 µM) | 0.21 (≈ 0.386 µM) | 0.36 (≈ 0.662 µM) | 0.43 (≈ 0.791 µM)
O=C1C=CC(O)(c2cc(=O)c3ccccc3o2)C=C1 [compound 8a, 2-(1-hydroxy-4-oxocyclohexa-2,5-dienyl)-4H-chromen-4-one] | – | – | – | – | – | 1.71 (≈ 6.73 µM) | 0.18 (≈ 0.708 µM) | 1.33 (≈ 5.23 µM) | 0.32 (≈ 1.26 µM) | 0.44 (≈ 1.73 µM)
COC1(c2cc(=O)c3ccccc3o2)C=CC(=O)C=C1 [compound 8b, 1'-methoxyprotoflavonoen] | – | – | – | – | – | 10.9 (≈ 40.8 µM) | 1.47 (≈ 5.48 µM) | > 20 | 1.45 (≈ 5.41 µM) | 2.14 (≈ 7.98 µM)
O=C1C=CC(O)(c2cc(=O)c3c(O)cccc3o2)C=C1 [compound 10a, 2-(1-hydroxy-4-oxocyclohexa-2,5-dienyl)-5-hydroxy-4H-chromen-4-one] | – | – | – | – | – | 1.34 (≈ 4.96 µM) | 0.18 (≈ 0.666 µM) | 1.37 (≈ 5.07 µM) | 0.35 (≈ 1.3 µM) | 0.93 (≈ 3.44 µM)
O=C1C=CC(O)(c2cc(=O)c3c(ccc4ccccc43)o2)C=C1 [compound 15a, 3-(1-hydroxy-4-oxocyclohexa-2,5-dienyl)-1H-benzo[f]chromen-1-one] | – | – | – | – | – | 1.08 (≈ 3.55 µM) | 0.12 (≈ 0.394 µM) | 0.55 (≈ 1.81 µM) | 0.09 (≈ 0.296 µM) | 0.2 (≈ 0.657 µM)
COC1(c2cc(=O)c3c(ccc4ccccc43)o2)C=CC(=O)C=C1 [compound 15b] | – | – | – | – | – | 3.16 (≈ 9.93 µM) | 0.37 (≈ 1.16 µM) | 8.2 (≈ 25.8 µM) | 0.35 (≈ 1.1 µM) | 0.86 (≈ 2.7 µM)
COc1cc(O)c2c(=O)cc(C3(O)C=CC(=O)C=C3)oc2c1 [compound 18a, 5-hydroxy-2-(1-hydroxy-4-oxocyclohexa-2,5-dienyl)-7-methoxy-4H-chromen-4-one] | – | – | – | – | – | 0.17 (≈ 0.566 µM) | 0.13 (≈ 0.433 µM) | 0.93 (≈ 3.1 µM) | 0.2 (≈ 0.666 µM) | 0.51 (≈ 1.7 µM)
O=C1C=CC(O)(c2cc(=O)c3c(O)cc(O)cc3o2)C=C1 [protoapigenone] | – | – | – | – | – | 2.32 (≈ 8.11 µM) | 0.41 (≈ 1.43 µM) | 3.96 (≈ 13.8 µM) | 0.65 (≈ 2.27 µM) | 1.07 (≈ 3.74 µM)
